According to paper PMC12059914, “Discovery of Novel Allosteric Inhibitor Hits for Insulin-Regulated Aminopeptidase Provides Insights on Enzymatic Mechanism” (ACS Omega, 2025):

Key:
Format in all cases: biochemical
ERAP1 [1] = biological target: T1, ERAP1 (Homo sapiens, UniProt Q9NZ08); experiment: fluorogenic Leu-AMC hydrolysis, dose-response
T1 construct: recombinant; Hi5 insect cells, baculovirus; Ni-NTA purified

ERAP2 = biological target: T2, ERAP2 (Homo sapiens, UniProt Q6P179); experiment: fluorogenic Arg-AMC hydrolysis, dose-response
T2 construct: recombinant; Hi5 insect cells, baculovirus; Ni-NTA purified

[2] = biological target: T3, IRAP (insulin-regulated aminopeptidase) (Homo sapiens, UniProt Q9UIQ6); experiment: fluorogenic Leu-AMC hydrolysis, dose-response
T3 construct: gene LNPEP; extracellular (luminal) aminopeptidase domain; Rhodopsin 1D4 tag (given as N-terminal); secreted from stably transfected HEK 293S GnTI(-) cells; PDB ids are the docking structures

ERAP1 [3] = biological target: T1, ERAP1; experiment: fluorogenic Leu-AMC hydrolysis, dose-response; remark: listed apart in the source
[4] = biological target: T3, IRAP (insulin-regulated aminopeptidase); experiment: Michaelis-Menten, fluorescence; conditions: pH 7.0, 1 nM enzyme, no inhibitor
[5] = biological target: T3, IRAP (insulin-regulated aminopeptidase); experiment: HPLC vasopressin trimming, dose-response

T1 sequence (Q9NZ08 whole entry): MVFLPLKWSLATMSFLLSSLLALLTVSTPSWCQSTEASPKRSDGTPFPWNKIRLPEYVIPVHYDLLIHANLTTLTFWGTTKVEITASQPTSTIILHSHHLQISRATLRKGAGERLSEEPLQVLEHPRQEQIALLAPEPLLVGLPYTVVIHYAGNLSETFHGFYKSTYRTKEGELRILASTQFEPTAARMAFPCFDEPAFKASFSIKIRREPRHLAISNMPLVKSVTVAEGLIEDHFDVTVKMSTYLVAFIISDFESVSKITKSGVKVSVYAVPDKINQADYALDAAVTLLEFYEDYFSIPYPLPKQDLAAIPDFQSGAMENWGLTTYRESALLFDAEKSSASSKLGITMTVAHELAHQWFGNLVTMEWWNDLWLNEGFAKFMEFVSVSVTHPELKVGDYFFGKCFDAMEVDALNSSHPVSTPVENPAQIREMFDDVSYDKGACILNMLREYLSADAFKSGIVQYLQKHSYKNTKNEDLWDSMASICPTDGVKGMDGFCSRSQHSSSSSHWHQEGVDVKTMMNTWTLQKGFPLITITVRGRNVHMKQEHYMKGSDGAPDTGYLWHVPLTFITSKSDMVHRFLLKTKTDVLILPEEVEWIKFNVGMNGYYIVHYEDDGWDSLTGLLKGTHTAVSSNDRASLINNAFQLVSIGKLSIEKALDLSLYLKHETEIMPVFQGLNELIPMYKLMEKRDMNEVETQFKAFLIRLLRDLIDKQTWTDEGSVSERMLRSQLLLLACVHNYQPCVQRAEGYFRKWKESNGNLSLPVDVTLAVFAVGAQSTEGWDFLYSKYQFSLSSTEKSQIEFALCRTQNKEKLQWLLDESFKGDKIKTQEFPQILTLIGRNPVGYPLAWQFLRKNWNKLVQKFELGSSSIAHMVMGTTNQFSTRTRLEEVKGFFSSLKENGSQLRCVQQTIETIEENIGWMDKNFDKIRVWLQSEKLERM
T2 sequence (Q6P179 whole entry): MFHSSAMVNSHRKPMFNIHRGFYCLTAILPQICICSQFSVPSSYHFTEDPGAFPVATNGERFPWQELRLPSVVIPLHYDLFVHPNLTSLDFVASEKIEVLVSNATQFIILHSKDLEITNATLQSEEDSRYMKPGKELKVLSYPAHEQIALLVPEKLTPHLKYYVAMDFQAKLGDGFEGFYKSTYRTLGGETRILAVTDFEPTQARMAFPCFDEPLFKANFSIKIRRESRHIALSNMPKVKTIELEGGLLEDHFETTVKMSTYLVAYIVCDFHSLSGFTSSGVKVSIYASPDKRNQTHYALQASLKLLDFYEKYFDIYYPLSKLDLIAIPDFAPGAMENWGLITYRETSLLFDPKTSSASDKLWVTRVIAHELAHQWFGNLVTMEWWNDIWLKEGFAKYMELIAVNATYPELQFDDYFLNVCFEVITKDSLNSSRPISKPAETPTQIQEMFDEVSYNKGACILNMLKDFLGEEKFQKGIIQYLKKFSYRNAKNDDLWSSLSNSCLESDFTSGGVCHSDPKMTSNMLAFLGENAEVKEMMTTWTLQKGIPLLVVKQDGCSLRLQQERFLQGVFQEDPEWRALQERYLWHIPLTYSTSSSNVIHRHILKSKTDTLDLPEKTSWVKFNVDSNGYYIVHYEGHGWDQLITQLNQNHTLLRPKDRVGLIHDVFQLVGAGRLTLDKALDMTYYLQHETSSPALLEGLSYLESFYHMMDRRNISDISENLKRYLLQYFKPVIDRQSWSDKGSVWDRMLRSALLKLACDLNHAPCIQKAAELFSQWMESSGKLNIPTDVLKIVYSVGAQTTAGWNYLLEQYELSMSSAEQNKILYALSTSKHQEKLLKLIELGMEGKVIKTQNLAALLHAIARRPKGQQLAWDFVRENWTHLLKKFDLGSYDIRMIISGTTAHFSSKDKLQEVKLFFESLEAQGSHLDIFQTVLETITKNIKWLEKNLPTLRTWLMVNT
T3 sequence (Q9UIQ6 132-1025 limits assumed): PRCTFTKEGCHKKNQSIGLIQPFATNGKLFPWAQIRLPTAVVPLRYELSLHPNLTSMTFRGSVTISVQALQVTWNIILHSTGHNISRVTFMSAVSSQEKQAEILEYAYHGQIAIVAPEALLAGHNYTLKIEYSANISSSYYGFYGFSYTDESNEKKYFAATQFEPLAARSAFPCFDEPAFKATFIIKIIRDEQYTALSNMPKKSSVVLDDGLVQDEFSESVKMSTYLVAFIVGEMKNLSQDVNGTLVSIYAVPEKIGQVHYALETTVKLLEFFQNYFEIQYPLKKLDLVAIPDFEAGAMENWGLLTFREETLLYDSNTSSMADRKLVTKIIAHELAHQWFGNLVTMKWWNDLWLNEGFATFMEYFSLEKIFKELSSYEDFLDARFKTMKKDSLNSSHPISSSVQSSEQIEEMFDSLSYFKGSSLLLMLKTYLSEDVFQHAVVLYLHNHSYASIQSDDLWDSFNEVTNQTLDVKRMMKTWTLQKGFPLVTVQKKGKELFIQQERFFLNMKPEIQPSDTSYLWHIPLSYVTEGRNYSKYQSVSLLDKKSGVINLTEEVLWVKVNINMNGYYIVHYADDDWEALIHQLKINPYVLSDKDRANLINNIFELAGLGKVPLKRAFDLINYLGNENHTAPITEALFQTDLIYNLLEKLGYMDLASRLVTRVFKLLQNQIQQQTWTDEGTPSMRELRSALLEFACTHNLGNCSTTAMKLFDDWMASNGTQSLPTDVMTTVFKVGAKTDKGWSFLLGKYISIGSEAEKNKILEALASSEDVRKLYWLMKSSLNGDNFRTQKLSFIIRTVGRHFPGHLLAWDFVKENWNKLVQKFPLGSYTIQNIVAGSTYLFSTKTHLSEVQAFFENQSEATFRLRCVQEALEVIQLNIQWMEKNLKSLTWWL

SMILES	EC50 (ERAP1 [1]) [µM]	IC50 (ERAP2) [µM]	IC50 [2] [µM]	IC50 (ERAP1 [3]) [µM]	KM [4]	IC50 [5] [µM]
NCc1cc(C(=O)NC(Cc2ccccc2Cl)c2ccccc2)n[nH]1 (racemic) [compound 11]	~450	1300	125	–	–	–
O=C(O)c1cc(CN2CCCCC2CCCc2ccccc2)[nH]n1 (racemic) [compound 8]	–	> 10000	30	> 300	–	–
Cc1cc(=O)oc2cc(NC(=O)[C@@H](N)CC(C)C)ccc12 [Leu-AMC]	–	–	–	–	Michaelis–Menten analysis of (A, B) Leu-AMC substrate digestion by IRAP	–
Cc1ccc(CC(C)(CO)NC(=O)c2cc(-c3c[nH]c4ccccc34)[nH]n2)cc1 (racemic) [compound 17]	–	3600	208	> 300	–	–
O=C(O)C1(CF)CCN(Cc2cc3c(Br)cc(F)cc3[nH]2)C1 (racemic) [compound 2]	–	–	–	–	–	280
